According to US20230312752A1 (Brown University, priority 2021, published 2023):
Entries after “also recorded” stand apart in the source; their conditions may differ. Structures can show the parent of a compound that is named as a salt. Where two headings read alike, the source gives them in different places.

Experiments:
[1] = target: CDK1 (Homo sapiens, UniProt P06493); details: cited from earlier work
[2] = target: CDK3 (Homo sapiens, UniProt Q00526); details: cited from earlier work
[3] = target: CDK2 (Homo sapiens, UniProt P24941); details: cited from earlier work
[4] = target: CDK4 (Homo sapiens, UniProt P11802); details: cited from earlier work
[5] = target: CDK6 (Homo sapiens, UniProt Q00534); set-up: key to the marks not given beside the values; details: cited from earlier work
[6] = target: CDK7 (Homo sapiens, UniProt P50613); details: cited from earlier work
[7] = tested on: ERK and AKT; type: cell-based, human
[8] = tested on: ACE2; type: cell-based, human
[9] = tested on: TMPRSS2, CTSL and FURIN; type: cell-based, human
[10] = tested on: pseudovirus with the G614 S protein; type: cell-based, SARS-CoV-2
[11] = tested on: pseudovirus with the ancestral G614 S protein; type: cell-based, SARS-CoV-2
[12] = target: Chitinase 1 (CHIT1) (Homo sapiens, UniProt Q13231); details: cited from earlier work
[13] = tested on: influenza and other viral infections; details: cited from earlier work
[14] = target: CDK8 (Homo sapiens, UniProt P49336); set-up: key: + is used to indicate the potency of the inhibitor; ++++ > +++ > ++ > +; + is used to indicate the potency of the inhibitor; ++++ > +++ > ++ > +; + is used to indicate the potency of the inhibitor; ++++ > +++ > ++ > +; + is used to indicate the potency of the inhibitor; ++++ > +++ > ++ > +; ◯ refers to compounds with inhibitory effects on the related isoform, but without specific value; details: cited from earlier work
[15] = target: CDK9 (Homo sapiens, UniProt P50750); set-up: key: + is used to indicate the potency of the inhibitor; ++++ > +++ > ++ > +; + is used to indicate the potency of the inhibitor; ++++ > +++ > ++ > +; + is used to indicate the potency of the inhibitor; ++++ > +++ > ++ > +; + is used to indicate the potency of the inhibitor; ++++ > +++ > ++ > +; ◯ refers to compounds with inhibitory effects on the related isoform, but without specific value; details: cited from earlier work
[16] = tested on: pseudoviruses with delta S proteins; type: cell-based, SARS-CoV-2
[17] = target: human and mouse CHI3L1; test: Ligand binding affinity of FRG by ELISA; details: both human and mouse CHI3L1
Experimental: The murine monoclonal anti-CHI3L1 antibody (FRG) was generated using peptide antigen (amino acid 223-234 of human CHI3L1) as immunogen through Abmart Inc (Berkeley Heights, NJ). […] HEK-293T cells were transfected with the FRG construct using Lipofectamine™ 3000 (Invitrogen, #L3000015). Supernatant was collected for 7 days, and the antibody was purified using a protein A column (ThermoFisher scientific, #89960). Ligand binding affinity and sensitivity were assessed using ELISA techniques.

[18] = tested on: pseudovirus containing the S protein (D614 and G614 variants); type: cell-based; details: Calu-3 cells, rCHI3L1 250 ng/mL 24 hours, GFP by flow cytometry
[19] = tested on: ACE2; test: Immunocytochemical evaluation of ACE2 in Calu-3 cells; type: cell-based, human; details: at baseline and or after the administration of rCHI3L1; ICC, FIG. 18
[20] = Calu-3 cells, 24 hours, FRG or KSM 250 ng/mL, RT-PCR

Chain of CDK7 (P50613 whole entry): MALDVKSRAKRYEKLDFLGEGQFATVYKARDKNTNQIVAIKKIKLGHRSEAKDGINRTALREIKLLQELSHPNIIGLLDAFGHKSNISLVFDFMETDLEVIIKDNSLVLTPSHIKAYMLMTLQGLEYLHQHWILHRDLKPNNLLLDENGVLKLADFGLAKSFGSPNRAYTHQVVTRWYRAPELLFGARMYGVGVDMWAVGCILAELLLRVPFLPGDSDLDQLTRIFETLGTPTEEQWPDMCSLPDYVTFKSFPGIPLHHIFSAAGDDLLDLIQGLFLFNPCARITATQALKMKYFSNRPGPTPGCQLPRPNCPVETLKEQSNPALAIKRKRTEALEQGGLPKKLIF
Chain of CDK7 (P51946 whole entry, further chain): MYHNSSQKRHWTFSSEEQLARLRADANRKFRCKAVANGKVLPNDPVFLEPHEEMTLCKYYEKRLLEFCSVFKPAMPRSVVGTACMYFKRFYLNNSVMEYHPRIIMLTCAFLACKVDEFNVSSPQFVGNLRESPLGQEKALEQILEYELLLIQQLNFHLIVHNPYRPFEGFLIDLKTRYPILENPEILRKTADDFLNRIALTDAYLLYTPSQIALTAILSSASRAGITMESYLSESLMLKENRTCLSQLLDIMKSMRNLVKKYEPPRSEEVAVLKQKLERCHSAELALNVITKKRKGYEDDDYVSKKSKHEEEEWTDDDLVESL
Chain of CDK7 (P51948 whole entry, further chain): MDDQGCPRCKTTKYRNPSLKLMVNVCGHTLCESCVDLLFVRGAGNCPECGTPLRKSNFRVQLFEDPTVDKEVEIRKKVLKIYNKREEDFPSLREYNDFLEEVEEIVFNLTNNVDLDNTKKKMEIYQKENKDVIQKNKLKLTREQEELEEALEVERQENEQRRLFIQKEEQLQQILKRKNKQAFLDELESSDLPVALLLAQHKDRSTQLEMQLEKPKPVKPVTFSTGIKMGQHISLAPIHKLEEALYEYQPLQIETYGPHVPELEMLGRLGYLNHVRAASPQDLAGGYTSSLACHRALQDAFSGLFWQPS
Chain of Chitinase 1 (CHIT1) (Q13231 22-466): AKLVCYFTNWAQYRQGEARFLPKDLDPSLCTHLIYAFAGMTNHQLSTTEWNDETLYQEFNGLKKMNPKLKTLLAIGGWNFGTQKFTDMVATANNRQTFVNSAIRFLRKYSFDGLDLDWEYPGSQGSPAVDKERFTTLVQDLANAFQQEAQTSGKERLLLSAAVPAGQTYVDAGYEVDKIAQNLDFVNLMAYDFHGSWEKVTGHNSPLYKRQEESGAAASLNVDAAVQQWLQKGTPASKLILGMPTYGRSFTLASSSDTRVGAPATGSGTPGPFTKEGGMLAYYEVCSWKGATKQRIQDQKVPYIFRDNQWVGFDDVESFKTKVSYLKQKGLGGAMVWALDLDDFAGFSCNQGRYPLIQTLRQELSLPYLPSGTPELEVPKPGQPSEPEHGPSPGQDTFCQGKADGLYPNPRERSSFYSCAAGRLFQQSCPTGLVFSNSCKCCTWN
Chain of CDK4 (P11802 whole entry, species assumed): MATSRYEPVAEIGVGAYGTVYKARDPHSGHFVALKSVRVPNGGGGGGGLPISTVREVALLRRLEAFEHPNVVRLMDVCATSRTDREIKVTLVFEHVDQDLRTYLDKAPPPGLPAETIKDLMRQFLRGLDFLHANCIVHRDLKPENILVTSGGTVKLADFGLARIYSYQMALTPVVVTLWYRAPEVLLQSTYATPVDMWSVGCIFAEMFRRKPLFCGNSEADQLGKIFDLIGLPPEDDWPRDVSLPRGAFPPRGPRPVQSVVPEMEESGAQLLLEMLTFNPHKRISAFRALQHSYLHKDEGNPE
Chain of CDK4 (P24385 whole entry partner, species assumed): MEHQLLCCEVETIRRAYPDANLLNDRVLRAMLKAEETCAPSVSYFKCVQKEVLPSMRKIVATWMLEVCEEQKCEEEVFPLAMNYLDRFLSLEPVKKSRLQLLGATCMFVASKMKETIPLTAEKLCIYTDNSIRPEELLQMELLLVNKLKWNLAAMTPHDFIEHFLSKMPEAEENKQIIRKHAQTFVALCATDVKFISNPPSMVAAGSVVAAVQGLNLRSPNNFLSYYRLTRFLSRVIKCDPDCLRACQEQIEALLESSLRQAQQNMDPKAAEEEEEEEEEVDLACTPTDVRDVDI
Chain of CDK9 (P50750 whole entry, canonical isoform): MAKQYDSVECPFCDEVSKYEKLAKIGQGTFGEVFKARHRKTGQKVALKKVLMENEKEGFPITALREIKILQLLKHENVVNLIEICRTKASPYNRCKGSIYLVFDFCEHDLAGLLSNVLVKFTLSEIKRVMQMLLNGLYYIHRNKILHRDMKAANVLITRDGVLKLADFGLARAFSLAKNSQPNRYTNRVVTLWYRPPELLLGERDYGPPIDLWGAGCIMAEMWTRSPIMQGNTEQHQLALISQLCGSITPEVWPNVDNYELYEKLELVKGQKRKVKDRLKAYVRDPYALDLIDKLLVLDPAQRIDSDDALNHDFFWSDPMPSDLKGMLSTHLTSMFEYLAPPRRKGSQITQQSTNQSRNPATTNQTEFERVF
Chain of CDK9 (O60563 whole entry, further chain, canonical isoform): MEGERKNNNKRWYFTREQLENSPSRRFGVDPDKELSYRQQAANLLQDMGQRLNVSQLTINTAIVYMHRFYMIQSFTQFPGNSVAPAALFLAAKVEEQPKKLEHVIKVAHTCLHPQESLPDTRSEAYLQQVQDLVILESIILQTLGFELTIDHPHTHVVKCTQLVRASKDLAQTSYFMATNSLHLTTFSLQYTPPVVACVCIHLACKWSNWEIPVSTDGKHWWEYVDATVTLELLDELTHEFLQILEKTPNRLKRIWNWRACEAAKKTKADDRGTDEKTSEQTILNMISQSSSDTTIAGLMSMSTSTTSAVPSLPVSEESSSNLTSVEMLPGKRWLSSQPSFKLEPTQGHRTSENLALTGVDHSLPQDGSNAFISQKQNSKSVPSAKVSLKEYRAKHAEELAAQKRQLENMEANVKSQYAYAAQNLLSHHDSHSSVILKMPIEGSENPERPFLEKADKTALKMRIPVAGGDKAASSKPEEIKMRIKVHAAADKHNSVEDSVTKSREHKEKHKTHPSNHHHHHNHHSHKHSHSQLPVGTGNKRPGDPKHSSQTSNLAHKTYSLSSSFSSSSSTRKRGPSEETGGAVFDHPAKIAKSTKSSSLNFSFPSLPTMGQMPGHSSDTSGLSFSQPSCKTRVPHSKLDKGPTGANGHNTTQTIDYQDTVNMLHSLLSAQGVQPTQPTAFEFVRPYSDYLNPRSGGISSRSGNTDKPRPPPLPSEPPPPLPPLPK
Chain of CDK3 (P24864 whole entry): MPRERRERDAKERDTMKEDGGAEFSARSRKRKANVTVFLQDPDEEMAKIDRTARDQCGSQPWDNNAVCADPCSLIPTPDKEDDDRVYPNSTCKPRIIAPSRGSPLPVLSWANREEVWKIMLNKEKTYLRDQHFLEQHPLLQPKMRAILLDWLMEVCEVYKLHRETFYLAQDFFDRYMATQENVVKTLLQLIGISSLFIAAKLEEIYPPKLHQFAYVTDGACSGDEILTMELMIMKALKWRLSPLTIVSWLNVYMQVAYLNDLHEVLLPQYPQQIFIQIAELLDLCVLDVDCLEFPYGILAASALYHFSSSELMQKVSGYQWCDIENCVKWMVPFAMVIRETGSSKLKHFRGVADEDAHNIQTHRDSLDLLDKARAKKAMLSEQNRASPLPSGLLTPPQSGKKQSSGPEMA
Chain of CDK3 (Q00526 whole entry): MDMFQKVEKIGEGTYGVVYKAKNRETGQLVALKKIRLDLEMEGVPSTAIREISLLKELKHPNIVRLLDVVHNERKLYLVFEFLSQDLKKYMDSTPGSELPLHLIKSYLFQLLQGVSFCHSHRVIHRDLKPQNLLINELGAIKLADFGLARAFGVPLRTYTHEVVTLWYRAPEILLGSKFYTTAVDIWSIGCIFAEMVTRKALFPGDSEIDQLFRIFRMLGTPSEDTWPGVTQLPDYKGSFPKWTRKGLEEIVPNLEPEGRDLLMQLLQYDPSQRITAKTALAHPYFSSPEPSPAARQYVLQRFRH
Chain of CDK8 (P24863 whole entry, canonical isoform): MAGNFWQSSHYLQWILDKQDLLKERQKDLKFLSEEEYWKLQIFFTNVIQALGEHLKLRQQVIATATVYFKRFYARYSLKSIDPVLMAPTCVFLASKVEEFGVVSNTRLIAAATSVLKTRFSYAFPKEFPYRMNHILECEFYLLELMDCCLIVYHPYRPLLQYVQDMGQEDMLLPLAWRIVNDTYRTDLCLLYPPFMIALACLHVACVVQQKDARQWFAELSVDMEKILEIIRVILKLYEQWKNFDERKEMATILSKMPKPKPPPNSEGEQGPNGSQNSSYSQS
Chain of CDK8 (P49336 whole entry, canonical isoform): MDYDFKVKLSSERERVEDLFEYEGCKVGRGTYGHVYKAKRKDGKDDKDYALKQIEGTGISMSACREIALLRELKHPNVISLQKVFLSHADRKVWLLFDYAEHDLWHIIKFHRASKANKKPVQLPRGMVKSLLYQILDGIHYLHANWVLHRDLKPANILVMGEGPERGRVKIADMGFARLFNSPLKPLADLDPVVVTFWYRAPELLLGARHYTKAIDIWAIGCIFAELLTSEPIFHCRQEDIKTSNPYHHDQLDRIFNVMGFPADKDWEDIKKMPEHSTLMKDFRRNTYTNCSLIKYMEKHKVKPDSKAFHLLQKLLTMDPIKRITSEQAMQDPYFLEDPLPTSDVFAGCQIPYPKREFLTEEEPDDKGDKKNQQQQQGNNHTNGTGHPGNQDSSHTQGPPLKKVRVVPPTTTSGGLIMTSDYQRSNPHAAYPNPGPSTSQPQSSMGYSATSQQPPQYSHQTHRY

CN1CC[C@H](c2c(O)cc(O)c3c(=O)cc(-c4ccccc4Cl)oc23)[C@H](O)C1 [Flavopiridol HCl, Flavopiridol Hydrochloride]
Inhibitory potency CDK1 [1]: +++
Inhibitory potency CDK3 [2]: +
Inhibitory potency CDK2 [3]: +++
Inhibitory potency CDK4 [4]: +++
Inhibitory potency CDK6 [5]: +++
Inhibitory potency CDK7 [6]: +

C[C@H]1O[C@H](O[C@H]2[C@H](O)[C@@H](O)[C@@H](O)[C@H](O)[C@@H]2O)[C@@H](N)C[C@@H]1NC(=N)C(=O)O [Kasugamycin, 2-amino-2-[(2R,3S,5S,6R)-5-amino-2-methyl-6-[(2R,3S,5S,6S)-2,3,4,5,6-pentahydroxycyclohexyl]oxyoxan-3-yl]iminoacetic acid]
CHI3L1 stimulated MAPK and AKT activation [7]: abrogated
ability of rhCHI3L1 to stimulate ACE2 mRNA accumulation [8]: potently inhibited; also recorded: potently ameliorated
levels of basal ACE2 expression [8]: diminished
basal and rhCHI3L1-stimulated expression of TMPRSS2, CTSL and FURIN [9]: potently decreased
pseudovirus uptake when exogenous CHI3L1 was not administered [10]: diminished
rCHI3L1-augmented pseudovirus uptake [11]: abrogated
anti-Chitinase 1 (CHIT1) activities [12]: strong
influenza and other viral infections [13]: inhibit

LY2857785
Inhibitory potency CDK8 [14]: +++
Inhibitory potency CDK9 [15]: +++
Inhibitory potency CDK7 [6]: +

B1: FRG: murine monoclonal anti-CHI3L1 antibody raised against amino acid 223-234 of human CHI3L1; heavy chain SEQ ID NO: 13, light chain SEQ ID NO: 14 (antibody, V domains shown)
VH: QIQLVQSGPELKKPGETVKISCKASGYTFTNYGMNWVKQAPGKGLKWMGWINTYTGEPTYADDFKGRFAFSLETSASTAYLQINNLRNEDMSTYFCARLGYGKFYVMDYWGQGTSVTVSS
VL: DVVMTQTPLSLPVSLGDQASISCRSSQSLVHSNGNTYLHWYLQKPGQSPKLLIYKVSNRFSGVPDRFSGSGSGTDFTLKISRVEAEDLGVYFCSQSTHVTWTFGGGTKLEIK
delta pseudovirus infection [16]: abrogated
Kd [17]: ~1.1 nM
levels of basal ACE2 expression [8, 20]: modestly diminished
ability of rhCHI3L1 to stimulate ACE2 mRNA accumulation ([8]; Calu-3 cells, rhCHI3L1 24 hours, FRG or KSM 250 ng/mL, RT-PCR): potently inhibited; also recorded: potently ameliorated
basal and rhCHI3L1-stimulated expression of TMPRSS2, CTSL and FURIN [9, 20]: potently decreased
pseudovirus uptake when exogenous CHI3L1 was not administered [10]: diminished
pseudovirus uptake when exogenous rCHI3L1 was not administered [11]: diminished
rCHI3L1-augmented pseudovirus uptake [11]: abrogated
CHI3L1 effect on cellular integration of S proteins [18]: abrogated
expression of ACE2 [19]: abrogated
